Assay results as given in ChEMBL document CHEMBL1201862, “PubChem BioAssay data set” (2004).
Values joined by “and” are separate entries in the source; they are usually repeats but may differ in a detail not shown here. Identical values can stand only once.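 Briefly, cells in 96-well plates were exposed to five compound concentrations for 48 h, and endpoints were estimated by linear interpolation. Here, GI50 denotes the concentration required for 50% inhibition of growth.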 Active and inactive are the calls of the source. Rule as the data show it: active = GI50 up to about 1.1 µM and inactive = higher.

Tests used:
Assay in all cases: DTP human tumour cell line panel, 48 h
CAKI-1 = test system: CAKI-1
OVCAR-4 = test system: OVCAR-4
HOP-92 = test system: HOP-92
U-251 = test system: U-251
786-0 = test system: 786-0
UACC-62 = test system: UACC-62
NCI-H226 = test system: NCI-H226
Hs-578T = test system: Hs-578T
EKVX = test system: EKVX
HCT-15 = test system: HCT-15
MDA-MB-231 = test system: MDA-MB-231
SF-539 = test system: SF-539
A549 = test system: A549
OVCAR-3 = test system: OVCAR-3
UO-31 = test system: UO-31
NCI-H23 = test system: NCI-H23
K562 = test system: K562
COLO 205 = test system: COLO 205
ACHN = test system: ACHN
SF-268 = test system: SF-268
SK-OV-3 = test system: SK-OV-3
PC-3 = test system: PC-3
CCRF-CEM = test system: CCRF-CEM
SN12C = test system: SN12C
NCI-H522 = test system: NCI-H522
HOP-62 = test system: HOP-62
SNB-19 = test system: SNB-19
SF-295 = test system: SF-295
OVCAR-8 = test system: OVCAR-8
HCC 2998 = test system: HCC 2998
SK-MEL-5 = test system: SK-MEL-5
M14 = test system: M14
NCI-H460 = test system: NCI-H460
SK-MEL-2 = test system: SK-MEL-2
HL-60 = test system: HL-60
TK-10 = test system: TK-10
Malme-3M = test system: Malme-3M
T47D = test system: T47D
A498 = test system: A498
SNB-75 = test system: SNB-75
MCF7 = test system: MCF7
SW-620 = test system: SW-620
RXF 393 = test system: RXF 393
DU-145 = test system: DU-145
SK-MEL-28 = test system: SK-MEL-28
IGROV-1 = test system: IGROV-1
HT-29 = test system: HT-29
HCT-116 = test system: HCT-116
MOLT-4 = test system: MOLT-4
MDA-N = test system: MDA-N
RPMI-8226 = test system: RPMI-8226
MDA-MB-435 = test system: MDA-MB-435
OVCAR-5 = test system: OVCAR-5
KM12 = test system: KM12
LOX IMVI = test system: LOX IMVI
NCI/ADR-RES = test system: NCI/ADR-RES
SR = test system: SR
UACC-257 = test system: UACC-257

CC(=O)OCC1OC(n2c(=S)n(-c3ccccc3)c(=O)c3ccccc32)C(OC(C)=O)C(OC(C)=O)C1OC(C)=O (stereo not given)
GI50 (CAKI-1): 91.8 µM (inactive) and 83.4 µM (inactive)
GI50 (OVCAR-4): 55.8 µM (inactive) and 48.1 µM (inactive)
GI50 (HOP-92): 47.8 µM (inactive) and 33.6 µM (inactive)

CCC(=O)C1(N2CCOCC2)CCN(CCCC(=O)c2ccc(F)cc2)CC1
GI50 (U-251): > 100 µM (inactive)
GI50 (786-0): > 100 µM (inactive)
GI50 (CAKI-1): > 100 µM (inactive)
GI50 (UACC-62): > 100 µM (inactive)
GI50 (NCI-H226): > 100 µM (inactive)
GI50 (Hs-578T): > 100 µM (inactive)
GI50 (EKVX): > 100 µM (inactive)
GI50 (HCT-15): > 100 µM
GI50 (MDA-MB-231): > 100 µM (inactive)
GI50 (SF-539): > 100 µM (inactive)
GI50 (A549): > 100 µM (inactive)
GI50 (OVCAR-3): > 100 µM (inactive)
GI50 (UO-31): > 100 µM (inactive)
GI50 (NCI-H23): > 100 µM (inactive)
GI50 (K562): > 100 µM (inactive)
GI50 (COLO 205): > 100 µM (inactive)
GI50 (ACHN): > 100 µM (inactive)
GI50 (SF-268): > 100 µM (inactive)
GI50 (SK-OV-3): > 100 µM (inactive)
GI50 (PC-3): > 100 µM (inactive)
GI50 (CCRF-CEM): > 100 µM (inactive)
GI50 (SN12C): > 100 µM (inactive)
GI50 (NCI-H522): > 100 µM (inactive)
GI50 (HOP-62): > 100 µM (inactive)
GI50 (SNB-19): > 100 µM (inactive)
GI50 (OVCAR-4): > 100 µM (inactive)
GI50 (SF-295): > 100 µM (inactive)
GI50 (OVCAR-8): > 100 µM (inactive)
GI50 (HCC 2998): > 100 µM (inactive)
GI50 (SK-MEL-5): > 100 µM (inactive)
GI50 (M14): > 100 µM (inactive)
GI50 (NCI-H460): > 100 µM (inactive)
GI50 (SK-MEL-2): > 100 µM (inactive)
GI50 (HL-60): > 100 µM (inactive)
GI50 (TK-10): > 100 µM (inactive)
GI50 (Malme-3M): > 100 µM (inactive)
GI50 (T47D): > 100 µM (inactive)
GI50 (A498): > 100 µM (inactive)
GI50 (SNB-75): > 100 µM (inactive)
GI50 (MCF7): > 100 µM (inactive)
GI50 (SW-620): > 100 µM (inactive)
GI50 (RXF 393): > 100 µM (inactive)
GI50 (DU-145): > 100 µM (inactive)
GI50 (SK-MEL-28): > 100 µM (inactive)
GI50 (IGROV-1): > 100 µM (inactive)
GI50 (HT-29): 39.2 µM (inactive)
GI50 (HCT-116): > 100 µM (inactive)
GI50 (MOLT-4): > 100 µM (inactive)
GI50 (MDA-N): > 100 µM (inactive)
GI50 (RPMI-8226): > 100 µM (inactive)
GI50 (MDA-MB-435): > 100 µM (inactive)
GI50 (OVCAR-5): > 100 µM (inactive)
GI50 (KM12): > 100 µM (inactive)
GI50 (LOX IMVI): > 100 µM (inactive)
GI50 (NCI/ADR-RES): > 100 µM (inactive)

Cc1ccc2c(c1)CC1(C2)Cc2ccc(C)cc2C1=O (stereo not given)
GI50 (U-251): 37 µM (inactive)
GI50 (786-0): 16.8 µM (inactive)
GI50 (CAKI-1): 18.5 µM (inactive)
GI50 (NCI-H226): 11.5 µM (inactive)
GI50 (Hs-578T): 20.7 µM (inactive)
GI50 (EKVX): 32.2 µM (inactive)
GI50 (HCT-15): 15.6 µM
GI50 (MDA-MB-231): 21.5 µM (inactive)
GI50 (SF-539): 26.2 µM (inactive)
GI50 (A549): 33.3 µM (inactive)
GI50 (OVCAR-3): 23.9 µM (inactive)
GI50 (UO-31): 27.5 µM (inactive)
GI50 (NCI-H23): 36.5 µM (inactive)
GI50 (K562): 22.8 µM (inactive)
GI50 (COLO 205): 15.4 µM (inactive)
GI50 (ACHN): 27.7 µM (inactive)
GI50 (SF-268): 32 µM (inactive)
GI50 (SK-OV-3): 59.3 µM (inactive)
GI50 (PC-3): 27.9 µM (inactive)
GI50 (CCRF-CEM): 22.1 µM (inactive)
GI50 (SN12C): 24.8 µM (inactive)
GI50 (NCI-H522): 19.9 µM (inactive)
GI50 (HOP-62): 28 µM (inactive)
GI50 (SR): 12.6 µM (inactive)
GI50 (SNB-19): 61.4 µM (inactive)
GI50 (OVCAR-4): 46.5 µM (inactive)
GI50 (SF-295): 45.9 µM (inactive)
GI50 (OVCAR-8): 36.5 µM (inactive)
GI50 (HCC 2998): 25.9 µM (inactive)
GI50 (HOP-92): 19.5 µM (inactive)
GI50 (SK-MEL-5): 13 µM (inactive)
GI50 (M14): 20.2 µM (inactive)
GI50 (NCI-H460): 23.3 µM (inactive)
GI50 (SK-MEL-2): 19.9 µM (inactive)
GI50 (HL-60): 19 µM (inactive)
GI50 (TK-10): 31.2 µM (inactive)
GI50 (Malme-3M): 12.5 µM (inactive)
GI50 (T47D): 59.6 µM (inactive)
GI50 (A498): 36.9 µM (inactive)
GI50 (SNB-75): 18.2 µM (inactive)
GI50 (MCF7): 24.7 µM (inactive)
GI50 (SW-620): 30.6 µM (inactive)
GI50 (RXF 393): 17.9 µM (inactive)
GI50 (DU-145): 31.9 µM (inactive)
GI50 (SK-MEL-28): 42 µM (inactive)
GI50 (IGROV-1): 36 µM (inactive)
GI50 (HT-29): 18.7 µM (inactive)
GI50 (HCT-116): 21.2 µM (inactive)
GI50 (MOLT-4): 14.9 µM (inactive)
GI50 (MDA-N): 7.35 µM (inactive)
GI50 (RPMI-8226): 22.3 µM (inactive)
GI50 (MDA-MB-435): 11.4 µM (inactive)
GI50 (OVCAR-5): 43.9 µM (inactive)
GI50 (KM12): 23.5 µM (inactive)
GI50 (LOX IMVI): 20.1 µM (inactive)
GI50 (UACC-257): 18.9 µM (inactive)
GI50 (NCI/ADR-RES): 15.9 µM (inactive)
